According to ChEMBL document CHEMBL4028802, “DILIrank: the largest reference drug list ranked by the risk for developing drug-induced liver injury in humans” (Drug Discov Today, 2016):
Non-standard residues stand in square brackets, D forms with d. Residues, ends and D or L forms follow the SMILES beside them. d(hArg(Et2)) = CCN=C(NCC)NCCCC[C@@H](N)C(=O)O; hArg(Et2) = CCN=C(NCC)NCCCC[C@H](N)C(=O)O; dPhe(4-Cl) = N[C@H](Cc1ccc(Cl)cc1)C(=O)O; d2Nal = N[C@H](Cc1ccc2ccccc2c1)C(=O)O; d3Pal = N[C@H](Cc1cccnc1)C(=O)O

How the values were obtained:
Homo sapiens [1] = species on record: Homo sapiens; assay: Liver toxicity in human assessed as induction of drug-induced liver injury by measuring verified drug-induced liver injury concern status
Homo sapiens [2] = species on record: Homo sapiens; assay: Liver toxicity in human assessed as induction of drug-induced liver injury by measuring severity class index
Throughout, for DILI severity class: key of the grades not given here.

SMILES | DILI_Concern (Homo sapiens [1]) | DILI_severity_class (Homo sapiens [2])
CC(C)c1nc(CN(C)C(=O)N[C@H](C(=O)N[C@@H](Cc2ccccc2)C[C@H](O)[C@H](Cc2ccccc2)NC(=O)OCc2cncs2)C(C)C)cs1 [RITONAVIR] | Most-Dili-Concern | 8
CC1=C(CCC(=O)O)c2cc3[nH]c(cc4[nH]c(cc5nc(cc1n2)C(C)=C5C(C)OC(C)c1c(C)c2cc5nc(cc6nc(cc7[nH]c(cc1[nH]2)c(C)c7CCC(=O)O)C(CCC(=O)O)=C6C)C(C(C)O)=C5C)c(C)c4C(C)O)c(C)c3CCC(=O)O (centres undefined) | No-Dili-Concern | 0
O=C1NC(=O)C(c2ccccc2)(c2ccccc2)N1 [PHENYTOIN] | Most-Dili-Concern | 8
Nc1ccc(C(=O)O)c(O)c1 [AMINOSALICYLIC ACID] | Most-Dili-Concern | 5
COCCc1ccc(OCC(O)CNC(C)C)cc1.COCCc1ccc(OCC(O)CNC(C)C)cc1.O=C(O)CCC(=O)O (centres undefined) [METOPROLOL SUCCINATE] | Ambiguous-Dili-Concern | 3
CC(=O)O.CCNC(=O)[C@@H]1CCCN1C(=O)[C@H](CCCNC(=N)N)NC(=O)[C@H](CC(C)C)NC(=O)[C@@H](Cc1cn(Cc2ccccc2)cn1)NC(=O)[C@H](Cc1ccc(O)cc1)NC(=O)[C@H](CO)NC(=O)[C@H](Cc1c[nH]c2ccccc12)NC(=O)[C@H](Cc1cnc[nH]1)NC(=O)[C@@H]1CCC(=O)N1 [HISTRELIN ACETATE] | Ambiguous-Dili-Concern | 3
Cc1cnc(C(=O)NCCc2ccc(S(=O)(=O)NC(=O)NC3CCCCC3)cc2)cn1 [GLIPIZIDE] | Less-Dili-Concern | 3
CN(C)Cc1ccc(CSCCN/C(=C\[N+](=O)[O-])NCc2ccc3c(c2)OCO3)o1 [NIPEROTIDINE] | Most-Dili-Concern | 8
CC(=O)O.CC(C)[C@@H]1NC(=O)[C@H](CCCCN)NC(=O)[C@@H](Cc2c[nH]c3ccccc23)NC(=O)[C@H](Cc2ccc(O)cc2)NC(=O)[C@@H](NC(=O)[C@H](N)Cc2ccc3ccccc3c2)CSSC[C@@H](C(=O)N[C@H](C(N)=O)[C@@H](C)O)NC1=O [LANREOTIDE ACETATE] | Ambiguous-Dili-Concern | 2
COc1c(C)c2c(c(O)c1C/C=C(\C)CCC(=O)OCCN1CCOCC1)C(=O)OC2 [MYCOPHENOLATE MOFETIL] | Less-Dili-Concern | 3
Nc1cc(-c2ccncc2)c[nH]c1=O [INAMRINONE] | Ambiguous-Dili-Concern | 5
CN1[C@@H]2CC[C@H]1C[C@@H](OC(c1ccccc1)c1ccccc1)C2 [BENZTROPINE] | No-Dili-Concern | 0
CO[C@H]1C[C@@H]2CC[C@@H](C)[C@@](O)(O2)C(=O)C(=O)N2CCCC[C@H]2C(=O)O[C@H]([C@H](C)C[C@@H]2CC[C@@H](OC(=O)C(C)(CO)CO)[C@H](OC)C2)CC(=O)[C@H](C)/C=C(\C)[C@@H](O)[C@@H](OC)C(=O)[C@H](C)C[C@H](C)/C=C/C=C/C=C/1C [TEMSIROLIMUS] | No-Dili-Concern | 0
CN(C)CCC[C@@]1(c2ccc(F)cc2)OCc2cc(C#N)ccc21 [ESCITALOPRAM] | Less-Dili-Concern | 7
O=C(O)CCCc1ccc(N(CCCl)CCCl)cc1 [CHLORAMBUCIL] | Less-Dili-Concern | 3
CN(C)CCC=C1c2ccccc2CCc2ccccc21 [AMITRIPTYLINE] | Less-Dili-Concern | 5
NC(=O)c1cnccn1 [PYRAZINAMIDE] | Less-Dili-Concern | 3
c1ccc2[nH]c(-c3cscn3)nc2c1 [THIABENDAZOLE] | Most-Dili-Concern | 7
CC(CCc1ccccc1)NCC(O)c1ccc(O)c(C(N)=O)c1 (centres undefined) [LABETALOL] | Most-Dili-Concern | 8
CCCCC(=O)N(Cc1ccc(-c2ccccc2-c2nnn[nH]2)cc1)[C@H](C(=O)O)C(C)C | Less-Dili-Concern | 3
CC(=O)S[C@@H]1CC2=CC(=O)CC[C@]2(C)[C@H]2CC[C@@]3(C)[C@@H](CC[C@@]34CCC(=O)O4)[C@H]12 [SPIRONOLACTONE] | Less-Dili-Concern | 2
CC(C)N(CCC(C(N)=O)(c1ccccc1)c1ccccn1)C(C)C (centres undefined) [DISOPYRAMIDE] | Less-Dili-Concern | 2
COc1cc2nc(N3CCN(C(=O)C4COc5ccccc5O4)CC3)nc(N)c2cc1OC (centres undefined) [DOXAZOSIN] | Ambiguous-Dili-Concern | 3
NC12CC3CC(CC(C3)C1)C2 [AMANTADINE] | Ambiguous-Dili-Concern | 3

SMILES | DILI_Concern (Homo sapiens [1]) | DILI_severity_class (Homo sapiens [2])
O=c1[nH]cc(F)c(=O)[nH]1 [FLUOROURACIL] | Less-Dili-Concern | 0
CONC(=N)c1ccc(-c2ccc(-c3ccc(C(=N)NOC)cc3)o2)cc1 [PAFURAMIDINE] | Most-Dili-Concern | 8
C=CC(N)CCC(=O)O (centres undefined) [VIGABATRIN] | Ambiguous-Dili-Concern | 2
COc1ccc2c(C(=O)c3ccc(Cl)cc3)c(C)n(CC(=O)O)c2c1 [CLOMETACIN] | Most-Dili-Concern | 8
C[C@]12COC(=O)C[C@@H]1CC[C@@H]1[C@@H]2CC[C@@]2(C)[C@H]1CC[C@]2(C)O [OXANDROLONE] | Most-Dili-Concern | 8
Cc1c(OCC(F)(F)F)ccnc1C[S+]([O-])c1nc2ccccc2[nH]1 (centres undefined) [LANSOPRAZOLE] | Less-Dili-Concern | 3
CCc1oc2ccccc2c1C(=O)c1ccc(O)cc1 [BENZARONE] | Most-Dili-Concern | 8
Cn1c(=O)c2c(ncn2C)n(C)c1=O [CAFFEINE] | No-Dili-Concern | 0
COc1ccc(Cc2nccc3cc(OC)c(OC)cc23)cc1OC [PAPAVERINE] | Most-Dili-Concern | 5
CCCCC(F)(F)[C@@]1(O)CC[C@H]2[C@@H](CC(=O)[C@@H]2CCCCCCC(=O)O)O1 [LUBIPROSTONE] | No-Dili-Concern | 0
OC(CCN1CCCCC1)(c1ccccc1)C1CC2C=CC1C2 (centres undefined) [BIPERIDEN] | No-Dili-Concern | 0
CC(O)(CS(=O)(=O)c1ccc(F)cc1)C(=O)Nc1ccc(C#N)c(C(F)(F)F)c1 (centres undefined) [BICALUTAMIDE] | Most-Dili-Concern | 8
CC(NC(C)(C)C)C(=O)c1cccc(Cl)c1 (centres undefined) [BUPROPION] | Less-Dili-Concern | 5
CC[C@H](C)[C@H](NC(=O)[C@H](CC(=O)O)NC(=O)[C@H](CC(C)C)NC(=O)[C@H](CC(C)C)NC(=O)[C@H](CCCCN)NC(=O)[C@H](CCCN=C(N)N)NC(=O)[C@H](CC(N)=O)NC(=O)[C@H](CO)NC(=O)[C@H](Cc1cnc[nH]1)NC(=O)[C@H](C)NC(=O)[C@H](CCC(N)=O)NC(=O)[C@H](CCC(N)=O)NC(=O)[C@H](C)NC(=O)[C@H](CC(C)C)NC(=O)[C@H](CCC(N)=O)NC(=O)[C@H](CC(=O)O)NC(=O)[C@H](C)NC(=O)[C@H](CCCCN)NC(=O)[C@@H](NC(=O)[C@H](CCSC)NC(=O)[C@H](CCC(=O)O)NC(=O)[C@H](CC(C)C)NC(=O)[C@@H](NC(=O)[C@H](CCC(=O)O)NC(=O)[C@H](CCCN=C(N)N)NC(=O)[C@H](CC(C)C)NC(=O)[C@H](CC(C)C)NC(=O)[C@H](Cc1cnc[nH]1)NC(=O)[C@H](Cc1ccccc1)NC(=O)[C@@H](NC(=O)[C@H](CC(C)C)NC(=O)[C@H](CC(=O)O)NC(=O)[C@H](CC(C)C)NC(=O)[C@H](CO)NC(=O)[C@@H](NC(=O)[C@@H]1CCCN1C(=O)[C@@H]1CCCN1C(=O)[C@H](CCC(=O)O)NC(=O)[C@H](CCC(N)=O)NC(=O)[C@@H](N)CO)[C@@H](C)CC)[C@@H](C)O)C(C)C)[C@@H](C)O)C(=O)N[C@@H](C)C(N)=O | No-Dili-Concern | 0
Nc1nc(O)c2ncn(COC(CO)CO)c2n1 [GANCICLOVIR] | Ambiguous-Dili-Concern | 7
Cc1ccccc1N1C(=O)c2cc(S(N)(=O)=O)c(Cl)cc2NC1C (centres undefined) [METOLAZONE] | Ambiguous-Dili-Concern | 3
CC(=O)O.CC(=O)O.CC/N=C(\NCC)NCCCC[C@H](NC(=O)[C@H](CC(C)C)NC(=O)[C@@H](CCCCN/C(=N/CC)NCC)NC(=O)[C@H](Cc1ccc(O)cc1)NC(=O)[C@H](CO)NC(=O)[C@@H](Cc1cccnc1)NC(=O)[C@@H](Cc1ccc(Cl)cc1)NC(=O)[C@@H](Cc1ccc2ccccc2c1)NC(C)=O)C(=O)N1CCC[C@H]1C(=O)N[C@H](C)C(N)=O [GANIRELIX ACETATE] (Ac-[d2Nal][dPhe(4-Cl)][d3Pal]SY[d(hArg(Et2))]L[hArg(Et2)]P[dA]-NH2) | No-Dili-Concern | 0
CC(C)C[C@H](NC(=O)[C@H](Cc1ccccc1)NC(=O)c1cnccn1)B(O)O [BORTEZOMIB] | Most-Dili-Concern | 7
CN1CCN(CCCN2c3ccccc3Sc3ccc(C(F)(F)F)cc32)CC1 [TRIFLUOPERAZINE] | Ambiguous-Dili-Concern | 2
O=P(O)(O)C(Sc1ccc(Cl)cc1)P(=O)(O)O [TILUDRONIC ACID] | No-Dili-Concern | 0
N=C(N)NCCN1CCCCCCC1 [GUANETHIDINE] | No-Dili-Concern | 0
Cc1c(C)c2c(c(C)c1O)CCC(C)(COc1ccc(CC3SC(=O)NC3=O)cc1)O2 (centres undefined) [TROGLITAZONE] | Most-Dili-Concern | 8
CO[C@H]1/C=C/O[C@@]2(C)Oc3c(C)c(O)c4c(O)c(c(/C=N/N5CCN(C)CC5)c(O)c4c3C2=O)NC(=O)/C(C)=C\C=C\[C@H](C)[C@H](O)[C@@H](C)[C@@H](O)[C@@H](C)[C@H](OC(C)=O)[C@@H]1C [RIFAMPIN] | Most-Dili-Concern | 8
